Source: BindingDB's records for PubMed 10087012 (Medical College of Georgia, 1999)

Biological target: Sigma non-opioid intracellular receptor 1 (Homo sapiens, UniProt Q99720)
Sequence (Q99720 whole entry): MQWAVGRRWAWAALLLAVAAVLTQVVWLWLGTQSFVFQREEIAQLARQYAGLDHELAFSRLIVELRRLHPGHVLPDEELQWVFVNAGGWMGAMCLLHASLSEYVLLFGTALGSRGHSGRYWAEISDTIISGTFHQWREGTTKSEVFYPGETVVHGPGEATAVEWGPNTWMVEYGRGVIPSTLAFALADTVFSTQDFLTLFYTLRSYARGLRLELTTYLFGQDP

Compound	Ki [nM]
COc1ccc2c(c1)C13CCCCC1C(C2)N(C)CC3 (centres undefined) [Levomethorpan]	521
O=c1[nH]c2nccn2c2c1ncn2C1CC(O)C(COP(=O)(O)OP(=O)(O)OP(=O)(O)O)O1 (centres undefined) [CAS_85976-54-1]	42
CCN(CC)CCOCCOC(=O)C1(c2ccccc2)CCCC1 [SMR000326757]	10.4
C#CCN(C)CCCOc1ccc(Cl)cc1Cl [US8633208, Clorgyline]	8.7
